According to patent publication US8158165B2, “Preventative treatment and remission of allergic diseases” (CSIR, priority 2006, dated 2012):

How the values were obtained:
[1] = system: Human T lymphocytic Jurkat cells; assay: Cytotoxicity, Transcription Response NF-κB; assay type: cell-based
Protocol: Human T lymphocytic Jurkat cells, transfected with a response element-lacZ reporter in which transcription of the β-galactosidase gene is directed by the binding site for the NF-κB transcription factor, are used. Test compound and/or vehicle are incubated with the cells (1.5×10^6/ml) in the presence of 0.5 μM A23187 and 50 ng/ml PMA (phorbol 12-myristate 13-acetate) in RPMI-1640 pH 7.4 at 37° C. for 4 hours. Test compound-induced β-galactosidase activity is determined by the conversion of FDG (fluorescein di-β-D-galactopyranoside) to fluorescein. Fluorescence intensity is read on SpectroFluor Plus plate reader. […] […] These same concentrations are concurrently applied to a separate group of treated cells and evaluated for possible compound-induced cytotoxicity only if significant stimulation or inhibition is observed (Cat. #361100).

[2] = system: human peripheral blood mononuclear leukocytes (PBMNL); assay: Cytotoxicity, Mediator Release, Con A-Induced (AlamarBlue); assay type: cell-based
Protocol: (§1) For the ConA-Induced mediator release/cytotoxicity test, the test compound and/or vehicle is incubated with a suspension of human peripheral blood mononuclear leukocytes (PBMNL, 1×10^5/well) in the presence of Concanavalin A (Con A, 20 μg/ml) in RPMI buffer (pH 7.4) at 37° C. overnight in 5% CO2. AlamarBlue reagent is added and the cells are incubated at 37° C. for 16 hours. Living cells take up AlamarBlue and emit fluorescence. Fluorescence intensity is measured using a SpectraFluor Plus plate reader with excitation at 530 nm and emission at 590 nm. A decrease of 50% or more (50%) in fluorescence intensity relative to the vehicle treated controls indicates significant cytotoxicity. […] Dexamethasone is used as standard reference agent.

[3] = as above; assay type: cell-based, human; settings: human, pH 7.4
Protocol: as §1

## Cc1coc2c1C[C@H]1[C@H](C)C=CC(=O)[C@]1(C)C2 (relative stereo) [compound 1, 4,4a,5,9-tetrahydro-3,5,8a-trimethylnaptho[2,3-b]furan-8-one]
[1]; 0.1 μM
  % RESPONSE Ant, Cytotoxicity, Transcription Response NF-κB: 6%
[1]; 1 μM
  % RESPONSE Ant, Cytotoxicity, Transcription Response NF-κB: 2%
[1]; 10 μM
  % RESPONSE Ant, Cytotoxicity, Transcription Response NF-κB: 2%
[1]; 10 μM, fifth (last) step of the series
  % RESPONSE Ant, Cytotoxicity, Transcription Response NF-κB: 1%
[1]; 100 μM
  % RESPONSE Ant, Cytotoxicity, Transcription Response NF-κB: −3%
[1]; 100 μM, listed as compound of formula 1
  % RESPONSE Ant, Cytotoxicity, Transcription Response NF-κB: no apparent cytotoxicity
[2]
  cytotoxicity observed in mediator release bio-assays (in words): Limited cytotoxicity
[2]; 10 nM
  ANT. Cytotoxicity, Mediator Release, Con A-Induced: −1%
[2]; 0.1 μM
  ANT. Cytotoxicity, Mediator Release, Con A-Induced: 0%
[2]; 1 μM
  ANT. Cytotoxicity, Mediator Release, Con A-Induced: 18%
[2]; 10 μM
  ANT. Cytotoxicity, Mediator Release, Con A-Induced: 35%
[2]; 100 μM
  ANT. Cytotoxicity, Mediator Release, Con A-Induced: 53%
[3]
  IC50: 58.5 µM
